According to patent publication US4415566A, “Cephalosporin derivatives” (Boehringer Ingelheim GmbH, priority 1979, dated 1983):
Values after ≈ are worked out from the molar mass of the structure shown. Where two headings read alike, the source gives them in different places.

Assays:
[1] = test system: Enterbacter cloaceae ATCC 13 047; experiment: Serial dilution test in the microtiter system (MIC), Eb. cloaceae ATCC 13047; assay type: cell-based
Procedure: (§1) These tests were performed according to the method of the serial dilution test in the microtiter system. The effect of the substances on bacteriostasis was examined in a fluid medium. […] A nutrient medium of the following composition was used. 10 gm of peptone, 8 gm of meat extract-oxoid, 3 gm of sodium chloride, 2 gm of sec. sodium phosphate were diluted with distilled water to […] (pH 7.2-7.4). Only in the test against streptococci 1% of glucose was added. The age of the primary cultures was about 20 hours. The standardization of the pathogen suspension was effected by using a photometer according to "Eppendorf" (test tube dismeter 14 mm, filter 546 nm) with the aid of the turbidity of a comparison suspension consisting of barium sulfate, this suspension being prepared by addition of 3.0 ml of 1% barium chloride solution to 97 ml of 1% sulfuric acid. After the standardization, streptococcus aronson were further diluted to a concentration of 1:15 and the other microorganisms to a concentration of 1:1500 by means of a sodium chloride solution.
(§2) 16 mg of the test substance were put into a 10 ml-measuring flask and filled up to the mark with the solvent. The further dilution series was standardized with distilled water or the respective solvent.
(§3) The cavities of the microtiter plates were filled with 0.2 ml of nutrient medium. Then, 0.01 ml of the corresponding test substance dilution was added and inoculated with 0.01 ml of the standardized suspension. The bacteria were incubated at 37° C. for 18-20 hours. Control tests merely using the solvent were carried out simultaneously.
(§4) The measurement was carried out macroscopically to determine the minimal inhibitory (threshold) concentration, i.e. the lower still bacteriostatically effective concentration.
(§5) Staphylococcus aureus SG 511, Escherichia coli ATCC 11 775, Pseudomonas aeruginosa Hamburgensis and Pseudomonas aeruginosa Walter, Serratia marcescens ATCC 13880, Klebsiella pneumoniae ATCC 10 031 and 272, Proteus mirabilis Hamburgensis, Proteus rettgeri, Enterbacter cloaceae ATCC 13 047 and E. Coli R+TEM (β-lactamase carrier).

[2] = test system: Pseudomonas aeruginosa Hamburgensis; experiment: Serial dilution test in the microtiter system (MIC), Pseud. aerug. Hbg.; assay type: cell-based
Procedure: as §1, §2, §3, §4, §5

[3] = test system: Klebsiella pneumoniae ATCC 10 031; experiment: Serial dilution test in the microtiter system (MIC), Klebs. pneum. ATCC 10031; assay type: cell-based
Procedure: as §1, §2, §3, §4, §5

[4] = test system: Pseudomonas aeruginosa Walter; experiment: Serial dilution test in the microtiter system (MIC), Pseud. aerug. Walter; assay type: cell-based
Procedure: as §1, §2, §3, §4, §5

[5] = test system: Klebsiella pneumoniae 272; experiment: Serial dilution test in the microtiter system (MIC), Klebs. pneum. 272; assay type: cell-based
Procedure: as §1, §2, §3, §4, §5

[6] = test system: Escherichia coli ATCC 11 775; experiment: Serial dilution test in the microtiter system (MIC), E. Coli ATCC 11775; assay type: cell-based
Procedure: as §1, §2, §3, §4, §5

[7] = test system: Serratia marcescens ATCC 13880; experiment: Serial dilution test in the microtiter system (MIC), Serrat. marcesc. ATCC 13880; assay type: cell-based; settings: 18-20 hours, read-out: MIC
Procedure: as §1, §2, §3, §4, §5

[8] = test system: Proteus mirabilis Hamburgensis; experiment: Serial dilution test in the microtiter system (MIC), Prot. mirabilis; assay type: cell-based
Procedure: as §1, §2, §3, §4, §5

Proteus rettgeri = experiment: Serial dilution test in the microtiter system (MIC), Prot. rettgeri; assay type: cell-based; settings: Providencia rettgeri, 37° C., 18-20 hours, read-out: MIC
Procedure: as §1, §2, §3, §4, §5

[9] = test system: Staphylococcus aureus SG 511; experiment: Serial dilution test in the microtiter system (MIC), S. aureus SG 511; assay type: cell-based; settings: SG511, Table IV, S. aureus SG 511, 37° C., 18-20 hours, read-out: MIC
Procedure: as §1, §2, §3, §4, §5

E. Coli ATCC 9637 = experiment: Serial dilution test in the microtiter system (MIC), E. Coli ATCC 9637; assay type: cell-based; settings: Escherichia coli, ATCC9637
[10] = test system: Psuedomonas aeruginosa Walter; experiment: In vivo activity in mice, Pseudomonas infection; design: species or system Female NMRI mice; settings: Mus musculus, iPSC, sc, 168 h; Pseudomonas infection i.p.; s.c. administration; per dose; observation 7 days; read-out: ED50 (dose at which 50% of the animals survived)
Procedure: (§6) A number of compounds of this invention were tested in vivo in mice against experimental infections. Bacteria E. coli ATCC 11775 and Psuedomonas aeruginosa Walter were used as pathogens. An intraperitoneal infection with 0.2 ml of a 5% suspension of the bacteria was induced. This corresponds to about 2×10^6 E. Coli germs and 8×10^5 pseudomonas germs/mouse. […] The groups with E. coli infection were treated with the test compound three times on the first day (1, 4, and 7 hours post infectionem) and for two days thereafter twice a day. The groups with the pseudomonas infection were treated with the test compound 6 times on the first day (1, 3, 6, 9, 12 and 15 hours post infectionem) and for two days thereafter twice a day. The observation time was in both cases 7 days. The results of these tests with representatives of the penicillins and cephalosporins according to the invention are shown in the following table: […]

E. coli ATCC 11775 = experiment: In vivo activity in mice, E. coli infection; design: species or system Female NMRI mice; settings: Escherichia coli, ATCC11775, iPSC, sc, 168 h; E. coli infection i.p.; s.c. administration; per dose; observation 7 days; read-out: ED50 (dose at which 50% of the animals survived)
Procedure: as §6

[11] = Table IV, Klebs. pneum. ATCC 10031, 37° C., 18-20 hours, read-out: MIC
[12] = Table III, Pseud. aerug. Hbg., 37° C., 18-20 hours, read-out: MIC
[13] = Table III, Pseud. aerug. Walter, 37° C., 18-20 hours, read-out: MIC
[14] = Table III, E. Coli ATCC 11775, 37° C., 18-20 hours, read-out: MIC
[15] = ATCC13880, Table III, Serrat. marcesc. ATCC 13880, 37° C.
[16] = Table III, Prot. mirabilis, 37° C., 18-20 hours, read-out: MIC
[17] = Table III, E. Coli ATCC 9637, 37° C., 18-20 hours, read-out: MIC

SMILES	MIC [3, 11]	MIC [4]	MIC [9]	MIC [1]	MIC [2, 12]	MIC [3]	MIC [4, 13]	MIC [5]; 272	MIC [6, 14]	MIC [7, 15]	MIC [8, 16]	MIC (E. Coli ATCC 9637; [17])	MIC (Proteus rettgeri; Table III, Prot. rettgeri)	MIC [6]	MIC [8]	other results
Cc1ncc(CNc2ncc(NC(=O)N[C@@H](C(=O)N[C@@H]3C(=O)N4C(C(=O)O)=C(CSc5nnnn5C)CS[C@H]34)c3ccc(O)cc3)c(O)n2)cn1 [P]	0.25 µg/mL (≈ 0.34 µM)	4 µg/mL (≈ 5.44 µM)	0.25 µg/mL (≈ 0.34 µM)	–	–	–	–	–	–	–	–	–	–	–	–	MIC ([1]; Table IV, Eb. cloaceae, 37° C., 18-20 hours, read-out: MIC): 0.5 µg/mL (≈ 0.68 µM); MIC [2]: 4 µg/mL (≈ 5.44 µM); MIC ([5]; Table IV, Klebs. pneum. 272, 37° C., 18-20 hours, read-out: MIC): 0.5 µg/mL (≈ 0.68 µM); MIC ([6]; Table IV, E. Coli ATCC 11775, 37° C., 18-20 hours, read-out: MIC): 0.12 µg/mL (≈ 0.163 µM); MIC ([7]; ATCC13880, Table IV, Serr. marcesc. ATCC 13880, 37° C.): 0.25 µg/mL (≈ 0.34 µM); MIC ([8]; Table IV, Prot. mir. Hbg., 37° C., 18-20 hours, read-out: MIC): 0.06 µg/mL (≈ 0.0815 µM); MIC (Proteus rettgeri; Table IV, Prot. rettg.): 0.25 µg/mL (≈ 0.34 µM)
CC1(C)S[C@@H]2[C@H](NC(=O)[C@H](NC(=O)Nc3cnc(Nc4ccc(S(C)(=O)=O)nc4)nc3O)c3ccc(O)cc3)C(=O)N2[C@H]1C(=O)O [Compound E, D-α-{3-[4-Hydroxy-2-(6'-methylsulfonyl-3'-pyridylamino)-5-pyrimidinyl]-ureido}-p-hydroxy-benzyl-penicillin sodium]	–	–	–	2 µg/mL	1 µg/mL	2 µg/mL	1 µg/mL	2 µg/mL	0.2 µg/mL	0.2 µg/mL	0.06 µg/mL	0.2 µg/mL	0.25 µg/mL	–	–	–
CC1(C)S[C@@H]2[C@H](NC(=O)[C@H](NC(=O)Nc3cnc(NCc4ccco4)nc3O)c3ccc(O)cc3)C(=O)N2[C@H]1C(=O)O [D, D-α-{3-[4-Hydroxy-2-(2'-furylmethylamino)-5-pyrimidinyl]-ureido}-p-hydroxy-benzyl-penicillin sodium]	–	2 µg/mL	–	4 µg/mL	1 µg/mL	4 µg/mL	–	–	–	0.5 µg/mL	–	0.5 µg/mL	0.5 µg/mL	1 µg/mL	0.25 µg/mL	ED50 [10]: 1.5 mg/kg; MIC ([5]; Table III, Klebs. pneum. 272, 37° C., 18-20 hours, read-out: MIC): 8 µg/mL; ED50 (E. coli ATCC 11775): 0.8 mg/kg
Cc1nnc(SCC2=C(C(=O)O)N3C(=O)[C@@H](NC(=O)Cn4cnnn4)[C@H]3SC2)s1 [Cephazolin, reference compound]	1 µg/mL (≈ 2.2 µM)	–	0.06 µg/mL (≈ 0.132 µM)	–	–	–	–	2 µg/mL (≈ 4.4 µM)	–	–	–	–	–	4 µg/mL (≈ 8.8 µM)	4 µg/mL (≈ 8.8 µM)	–
Cc1ncc(CNc2ncc(NC(=O)N[C@@H](C(=O)N[C@@H]3C(=O)N4[C@@H]3SC(C)(C)[C@@H]4C(=O)O)c3ccc(O)cc3)c(O)n2)cn1 [F, D-α-{3-[4-Hydroxy-2-(2'-methyl-5'-pyrimidinylmethylamino)-5-pyrimidinyl]-ureido}-p-hydroxy-benzyl-penicillin sodium]	–	–	–	4 µg/mL	–	8 µg/mL	1 µg/mL	8 µg/mL	0.5 µg/mL	0.5 µg/mL	0.06 µg/mL	–	0.5 µg/mL	–	–	MIC (E. Coli ATCC 9637): 0.5 µg/mL
CC1(C)S[C@@H]2[C@H](NC(=O)[C@H](NC(=O)Nc3cnc(Nc4ccc(O)nc4)nc3O)c3ccc(O)cc3)C(=O)N2[C@H]1C(=O)O [G, D-α-{3-[4-Hydroxy-2-(6'-hydroxy-3'-pyridylamino)-5-pyrimidinyl]-ureido}-p-hydroxy-benzyl-penicillin sodium]	–	–	–	4 µg/mL	0.5 µg/mL	4 µg/mL	0.5 µg/mL	4 µg/mL	0.2 µg/mL	0.1 µg/mL	0.01 µg/mL	0.2 µg/mL	0.5 µg/mL	–	–	–
